Tests used:
[1] = test system: Blumeria graminis f. sp. tritici; test: Blumeria graminis f. sp. tritici/wheat/leaf disc preventative (powdery mildew on wheat); format: in vivo; conditions: 200 ppm, wheat leaf segments cv. Kanzler, inoculated 1 day after application, assessed 6-8 days after application
Method: Wheat leaf segments cv. Kanzler are placed on agar in a multiwell plate (24-well format) and sprayed with the formulated test compound diluted in water. The leaf disks are inoculated by shaking powdery mildew infected plants above the test plates 1 day after application. The inoculated leaf disks are incubated at 20° C. and 60% rh under a light regime of 24 h darkness followed by 12 h light/12 h darkness in a climate chamber and the activity of a compound is assessed as percent disease control compared to untreated when an appropriate level of disease damage appears on untreated check leaf segments (6-8 days after application).

[2] = test system: Puccinia recondita f. sp. tritici; test: Puccinia recondita f. sp. tritici/wheat/leaf disc preventative (brown rust); format: in vivo; conditions: 200 ppm, inoculated 1 day after application, wheat leaf segments cv. Kanzler, assessed 7-9 days after application
Method: (§1) Wheat leaf segments cv. Kanzler are placed on agar in multiwell plates (24-well format) and sprayed with the formulated test compound diluted in water. The leaf disks are inoculated with a spore suspension of the fungus 1 day after application. The inoculated leaf segments are incubated at 19° C. and 75% rh under a light regime of 12 h light/12 h darkness in a climate cabinet and the activity of a compound is assessed as percent disease control compared to untreated when an appropriate level of disease damage appears in untreated check leaf segments (7-9 days after application).

[3] = test system: Mycosphaerella graminicola; test: Mycosphaerella graminicola (Septoria tritici)/liquid culture (Septoria blotch); format: cell-based; conditions: Zymoseptoria tritici, liquid culture, PDB, 24° C., growth inhibition photometric 4-5 days after application, read-out: control of Mycosphaerella graminicola compared to untreated control
Method: (§2) Conidia of the fungus from cryogenic storage are directly mixed into nutrient broth (PDB potato dextrose broth). After placing a (DMSO) solution of test compound into a microtiter plate (96-well format), the nutrient broth containing the fungal spores is added. The test plates are incubated at 24° C. and the inhibition of growth is determined photometrically 4-5 days after application.

Monographella nivalis = Monographella nivalis (Microdochium nivale)/liquid culture (foot rot cereals); format: cell-based; conditions: liquid culture, PDB, 24° C., growth inhibition photometric 4-5 days after application, read-out: control of Monographella nivalis compared to untreated control
Method: as §2

Alternaria solani = test: Alternaria solani/tomato/leaf disc (early blight); format: in vivo; conditions: 200 ppm; tomato leaf disks cv. Baby; inoculated 2 days after application; assessed 5-7 days after application
Method: Tomato leaf disks cv. Baby are placed on agar in multiwell plates (24-well format) and sprayed with the formulated test compound diluted in water. The leaf disks are inoculated with a spore suspension of the fungus 2 days after application. The inoculated leaf disks are incubated at 23° C./21° C. (day/night) and 80% rh under a light regime of 12/12 h (light/dark) in a climate cabinet and the activity of a compound is assessed as percent disease control compared to untreated when an appropriate level of disease damage appears on untreated check disk leaf disks (5-7 days after application).

Phaeosphaeria nodorum = Phaeosphaeria nodorum (Septoria nodorum)/wheat/leaf disc preventative (glume blotch); format: in vivo; conditions: 200 ppm, wheat leaf segments cv. Kanzler, inoculated 2 days after application, assessed 5-7 days after application
Method: (§3) Wheat leaf segments cv. Kanzler are placed on agar in a multiwell plate (24-well format) and sprayed with the formulated test compound diluted in water. The leaf disks are inoculated with a spore suspension of the fungus 2 days after application. The inoculated test leaf disks are incubated at 20° C. and 75% rh under a light regime of 12 h light/12 h darkness in a climate cabinet and the activity of a compound is assessed as percent disease control compared to untreated when an appropriate level of disease damage appears in untreated check leaf disks (5-7 days after application).

Mycosphaerella arachidis = Mycosphaerella arachidis (Cercospora arachidicola)/liquid culture (early leaf spot); format: cell-based; conditions: liquid culture, PDB, 24° C., growth inhibition photometric 4-5 days after application, read-out: control of Mycosphaerella arachidis compared to untreated control
Method: as §2

[4] = test system: Puccinia recondita f. sp. tritici; test: Puccinia recondita f. sp. tritici/wheat/leaf disc curative (brown rust); format: in vivo; conditions: 200 ppm, applied 1 day after inoculation, wheat leaf segments cv. Kanzler, assessed 6-8 days after application
Method: as §1, with “format).” for “format) and sprayed with the formulated test compound diluted in water.”, “segments” for “disks”, “fungus. Plates are stored in darkness at 19° C. and 75% rh. The formulated test compound diluted in water is applied” for “fungus”, “inoculation.” for “application.”, “The” for “The inoculated”, “(6-8” for “(7-9”

Botryotinia fuckeliana = Botryotinia fuckeliana (Botrytis cinerea)/liquid culture (gray mould); format: cell-based; conditions: liquid culture, Vogels broth, 24° C., growth inhibition photometric 3-4 days after application, read-out: control of Botryotinia fuckeliana compared to untreated control
Method: as §2, with “(Vogels” for “(PDB potato dextrose”, “3-4” for “4-5”

Sclerotinia sclerotiorum = test: Sclerotinia sclerotiorum/liquid culture (cottony rot); format: cell-based; conditions: liquid culture (mycelia fragments), PDB, 24° C., growth inhibition photometric 3-4 days after application, read-out: control of Sclerotinia sclerotiorum compared to untreated control
Method: as §2, with “Mycelia fragments of a newly grown liquid culture” for “Conidia”, “fungus” for “fungus from cryogenic storage”, “format)” for “format),”, “material” for “spores”, “3-4” for “4-5”

Glomerella lagenarium = Glomerella lagenarium (Colletotrichum lagenarium)/liquid culture (anthracnose); format: cell-based; conditions: Colletotrichum orbiculare, liquid culture, PDB, 24° C., growth inhibition photometric 3-4 days after application, read-out: control of Glomerella lagenarium compared to untreated control
Method: as §2, with “measured” for “determined”, “3-4” for “4-5”

Pyrenophora teres = test: Pyrenophora teres/barley/leaf disc preventative (net blotch); format: in vivo; conditions: 200 ppm, barley leaf segments cv. Hasso, inoculated 2 days after application, assessed 5-7 days after application
Method: as §3, with “Barley” for “Wheat”, “Hasso” for “Kanzler”, “segments” for “disks”, “inoculated” for “inoculated test”, “65%” for “75%”, “as” for “as percent”

Fusarium culmorum = test: microbe, parasite or virus in culture; format: cell-based; conditions: read-out: control of Fusarium culmorum compared to untreated control
Method: as §2, with “3-4” for “4-5”

Gibberella zeae = format: in vivo, Gibberella zeae (Fusarium graminearum); conditions: 200 ppm; preventative; wheat spikelets cv. Monsun; inoculated one day after application; assessed 6-8 days after application

Compound: Cc1c([C@H]2CN(C(=O)c3nnn(-c4ccc(F)cc4F)n3)[C@@H](C)c3ccccc32)cnn1C (racemic) [Compound P-42, [2-(2,4-difluorophenyl)tetrazol-5-yl]-[rac-(1S,4S)-4-(1,5-dimethylpyrazol-4-yl)-1-methyl-3,4-dihydro-1H-isoquinolin-2-yl]methanone]
- control of Blumeria graminis f. sp. tritici compared to untreated control [1]: at least 80%
- control of Puccinia recondita f. sp. tritici compared to untreated control [2]: at least 80%
- inhibition of growth at 20 ppm [3]: ≥ 80%
- inhibition of growth at 20 ppm (Monographella nivalis): ≥ 80%
- control of Alternaria solani compared to untreated control (Alternaria solani): at least 80%
- control of Phaeosphaeria nodorum compared to untreated control (Phaeosphaeria nodorum): at least 80%
- inhibition of growth at 20 ppm (Mycosphaerella arachidis): ≥ 80%
- control of Puccinia recondita f. sp. tritici compared to untreated control [4]: at least 80%
- inhibition of growth at 20 ppm (Botryotinia fuckeliana): ≥ 80%
- inhibition of growth at 20 ppm (Sclerotinia sclerotiorum): ≥ 80%
- inhibition of growth at 20 ppm (Glomerella lagenarium): ≥ 80%
- control of Pyrenophora teres compared to untreated control (Pyrenophora teres): at least 80%
- inhibition of growth at 20 ppm (Fusarium culmorum): ≥ 80%

Compound: C[C@H]1c2ccccc2[C@@H](c2cnn(C)c2Cl)CN1C(=O)c1cn(-c2ncc(F)cc2F)nn1 [Compound P-54, [(1S,4S)-4-(5-chloro-1-methyl-pyrazol-4-yl)-1-methyl-3,4-dihydro-1H-isoquinolin-2-yl]-[1-(3,5-difluoro-2-pyridyl)triazol-4-yl]methanone]
- control of Gibberella zeae compared to untreated control (Gibberella zeae): at least 80%
- control of Blumeria graminis f. sp. tritici compared to untreated control [1]: at least 80%
- inhibition of growth at 20 ppm [3]: ≥ 80%
- inhibition of growth at 20 ppm (Monographella nivalis): ≥ 80%
- control of Alternaria solani compared to untreated control (Alternaria solani): at least 80%
- control of Phaeosphaeria nodorum compared to untreated control (Phaeosphaeria nodorum): at least 80%
- inhibition of growth at 20 ppm (Mycosphaerella arachidis): ≥ 80%
- inhibition of growth at 20 ppm (Botryotinia fuckeliana): ≥ 80%
- inhibition of growth at 20 ppm (Glomerella lagenarium): ≥ 80%
- control of Pyrenophora teres compared to untreated control (Pyrenophora teres): at least 80%
- inhibition of growth at 20 ppm (Fusarium culmorum): ≥ 80%

— US20260324639A1, “MICROBIOCIDAL PYRAZOLE DERIVATIVES” (SYNGENTA CROP PROTECTION AG, priority 2022, published 2026)
